pIC50: −log10 of the molar value.
Target: T1, Chk1 (Homo sapiens, UniProt O14757)
T1 construct: purchased Upstate Biotechnology
T1 sequence (O14757 1-476): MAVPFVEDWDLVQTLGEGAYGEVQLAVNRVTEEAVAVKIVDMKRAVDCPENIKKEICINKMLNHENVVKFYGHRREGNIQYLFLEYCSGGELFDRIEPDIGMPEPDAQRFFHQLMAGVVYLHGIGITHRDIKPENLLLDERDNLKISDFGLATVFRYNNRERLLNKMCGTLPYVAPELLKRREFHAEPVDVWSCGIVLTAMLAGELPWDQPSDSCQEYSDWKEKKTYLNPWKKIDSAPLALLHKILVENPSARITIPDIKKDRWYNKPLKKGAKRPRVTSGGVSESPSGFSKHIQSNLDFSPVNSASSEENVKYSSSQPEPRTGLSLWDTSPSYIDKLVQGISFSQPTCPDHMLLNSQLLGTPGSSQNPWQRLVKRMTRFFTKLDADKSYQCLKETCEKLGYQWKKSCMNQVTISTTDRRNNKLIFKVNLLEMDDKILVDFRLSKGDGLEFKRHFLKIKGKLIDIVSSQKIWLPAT
Test: Chk1 kinase assay: incorporation of γ-33P ATP into immobilized myelin basic protein
Assay type: biochemical
Settings: read-out: Chk1 IC50
In short: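 Radiometric filter-free format: Chk1 10 nM, 10 μM ATP; Chk2 20 nM, 30 μM ATP; γ-33P ATP tracer; immobilized MBP substrate; Hepes pH 7.6, 10 mM MgCl2, 1 mM DTT; 1 h RT; 1% DMSO. Scintillation counting of washed plates. IC50/Ki from curve fit.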

SMILES | pIC50
CNC(=O)c1nc(-c2cccc(C(=O)NCc3ccc(OC(F)(F)F)cc3)c2)cnc1N [Example 227, 3-amino-N-methyl-6-(3-{[({4-[(trifluoromethyl)oxy]phenyl}methyl)amino]carbonyl}phenyl)pyrazine-2-carboxamide] | 6.00 to 7.30
CNC(=O)c1nc(-c2cccc(C(=O)NCc3ccc(F)c(C(F)(F)F)c3)c2)cnc1N [Example 228, 3-amino-6-{3-[({[4-fluoro-3-(trifluoromethyl)phenyl]methyl}amino)carbonyl]phenyl}-N-methylpyrazine-2-carboxamide] | 6.00 to 7.30
CNC(=O)c1nc(-c2cccc(C(=O)NCc3ccc(Cl)c(C(F)(F)F)c3)c2)cnc1N [Example 229, 3-amino-6-{3-[({[4-chloro-3-(trifluoromethyl)phenyl]methyl}amino)carbonyl]phenyl}-N-methylpyrazine-2-carboxamide] | 6.00 to 7.30
CNC(=O)c1nc(-c2cccc(C(=O)NCc3ccc(N)cc3)c2)cnc1N [Example 230, 3-amino-6-[3-({[(4-aminophenyl)methyl]amino}carbonyl)phenyl]-N-methylpyrazine-2-carboxamide] | 6.00 to 7.30
CNC(=O)c1nc(-c2cccc(C(=O)NCc3ccccc3N)c2)cnc1N [Example 231, 3-amino-6-[3-({[(2-aminophenyl)methyl]amino}carbonyl)phenyl]-N-methylpyrazine-2-carboxamide] | 6.00 to 7.30
CNC(=O)c1nc(-c2cccc(C(=O)NCc3cccc(N)c3)c2)cnc1N [Example 232, 3-amino-6-[3-({[(3-aminophenyl)methyl]amino}carbonyl)phenyl]-N-methylpyrazine-2-carboxamide] | 6.00 to 7.30
CNC(=O)c1nc(-c2cncnc2)cnc1N [Example 233, 3-amino-N-methyl-6-pyrimidin-5-ylpyrazine-2-carboxamide] | ≤ 5.00
CNC(=O)c1nc(-c2cccc(S(C)(=O)=O)c2)cnc1N [Example 234, 3-amino-N-methyl-6-[3-(methylsulfonyl)phenyl]pyrazine-2-carboxamide] | 5.00 to 6.00
CNC(=O)c1nc(-c2ccc(OC3CCCCO3)cc2)cnc1N (stereo not shown) [Example 235, 3-amino-N-methyl-6-[4-(tetrahydro-2H-pyran-2-yloxy)phenyl]pyrazine-2-carboxamide] | 6.00 to 7.30
CNC(=O)c1nc(-c2ccc(O)cc2)cnc1N [Example 236, 3-amino-6-(4-hydroxyphenyl)-N-methylpyrazine-2-carboxamide] | 6.00 to 7.30
CNC(=O)c1nc(-c2cccc(C(=O)NCc3ccc(S(N)(=O)=O)cc3)c2)cnc1N [Example 237, 3-amino-6-{3-[({[4-(aminosulfonyl)phenyl]methyl}amino)carbonyl]phenyl}-N-methylpyrazine-2-carboxamide] | 6.00 to 7.30
CNC(=O)c1nc(-c2cccc(C(=O)NCc3ccc(N(C)C)cc3)c2)cnc1N [Example 238, 3-amino-6-{3-[({[4-(dimethylamino)phenyl]methyl}amino)carbonyl]phenyl}-N-methylpyrazine-2-carboxamide] | 6.00 to 7.30
CNC(=O)c1nc(-c2cccc(C(=O)NCc3cccc(Br)c3)c2)cnc1N [Example 239, 3-amino-6-[3-({[(3-bromophenyl)methyl]amino}carbonyl)phenyl]-N-methylpyrazine-2-carboxamide] | 6.00 to 7.30
CNC(=O)c1nc(-c2ccc(Cl)c(C(=O)NCc3ccccc3)c2)cnc1N [Example 240, 3-amino-6-(4-chloro-3-{[(phenylmethyl)amino]carbonyl}phenyl)-N-methylpyrazine-2-carboxamide] | 6.00 to 7.30
COC(=O)c1cccc(-c2cnc(N)c(C(=O)NC3CC3)n2)c1 [Example 241, methyl 3-{5-amino-6-[(cyclopropylamino)carbonyl]pyrazin-2-yl}benzoate] | ≤ 5.00
CCNC(=O)c1nc(-c2cccc(C(=O)OC)c2)cnc1N [Example 242, methyl 3-{5-amino-6-[(ethylamino)carbonyl]pyrazin-2-yl}benzoate] | 5.00 to 6.00
CNC(=O)c1nc(-c2cccc(C(=O)NCc3cccc(C)c3C)c2)cnc1N [Example 243, 3-amino-6-[3-({[(2,3-dimethylphenyl)methyl]amino}carbonyl)phenyl]-N-methylpyrazine-2-carboxamide] | 6.00 to 7.30
CNC(=O)c1nc(-c2cccc(C(=O)NCc3ccc(O)c(OC)c3)c2)cnc1N [Example 244, 3-amino-6-{3-[({[4-hydroxy-3-(methyloxy)phenyl]methyl}amino)carbonyl]phenyl}-N-methylpyrazine-2-carboxamide] | 6.00 to 7.30
CNC(=O)c1nc(-c2cccc(C(=O)NCc3ccc(Cl)cc3C)c2)cnc1N [Example 245, 3-amino-6-[3-({[(4-chloro-2-methylphenyl)methyl]amino}carbonyl)phenyl]-N-methylpyrazine-2-carboxamide] | 6.00 to 7.30
CCOc1ccccc1CNC(=O)c1cccc(-c2cnc(N)c(C(=O)NC)n2)c1 [Example 246, 3-amino-6-{3-[({[2-(ethyloxy)phenyl]methyl}amino)carbonyl]phenyl}-N-methylpyrazine-2-carboxamide] | 6.00 to 7.30
CNC(=O)c1nc(-c2cccc(C(=O)NCc3c(Cl)cccc3Oc3ccccc3)c2)cnc1N [Example 247, 3-amino-6-{3-[({[2-chloro-6-(phenyloxy)phenyl]methyl}amino)carbonyl]phenyl}-N-methylpyrazine-2-carboxamide] | 6.00 to 7.30
CNC(=O)c1nc(-c2cccc(C(=O)NCc3cc(Cl)ccc3Cl)c2)cnc1N [Example 248, 3-amino-6-[3-({[(2,5-dichlorophenyl)methyl]amino}carbonyl)phenyl]-N-methylpyrazine-2-carboxamide] | 6.00 to 7.30
CNC(=O)c1nc(-c2cccc(C(=O)NCc3c(OC)cccc3OC)c2)cnc1N [Example 249, 3-amino-6-{3-[({[2,6-bis(methyloxy)phenyl]methyl}amino)carbonyl]phenyl}-N-methylpyrazine-2-carboxamide] | 5.00 to 6.00
CNC(=O)c1nc(-c2cccc(C(=O)NCc3c(C)cccc3Cl)c2)cnc1N [Example 250, 3-amino-6-[3-({[(2-chloro-6-methylphenyl)methyl]amino}carbonyl)phenyl]-N-methylpyrazine-2-carboxamide] | 6.00 to 7.30
CNC(=O)c1nc(-c2cccc(C(=O)NCc3cc(F)c(F)cc3F)c2)cnc1N [Example 251, 3-amino-N-methyl-6-[3-({[(2,4,5-trifluorophenyl)methyl]amino}carbonyl)phenyl]pyrazine-2-carboxamide] | 6.00 to 7.30
CNC(=O)c1nc(-c2cccc(C(=O)NCC(C)(C)C)c2)cnc1N [Example 252, 3-amino-6-(3-{[(2,2-dimethylpropyl)amino]carbonyl}phenyl)-N-methylpyrazine-2-carboxamide] | 5.00 to 6.00
CNC(=O)c1nc(-c2cccc(C(=O)NCC3CCCC3)c2)cnc1N [Example 253, 3-amino-6-(3-{[(cyclopentylmethyl)amino]carbonyl}phenyl)-N-methylpyrazine-2-carboxamide] | 6.00 to 7.30
CNC(=O)c1nc(-c2cccc(C(=O)NCc3cc(OC)cc(OC)c3)c2)cnc1N [Example 254, 3-amino-6-{3-[({[3,5-bis(methyloxy)phenyl]methyl}amino)carbonyl]phenyl}-N-methylpyrazine-2-carboxamide] | 6.00 to 7.30
